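GI50 is the concentration that inhibits growth by half. TGI: concentration producing complete growth inhibition.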
What was measured:
Experiment in all cases: DTP human tumour cell line panel, 384-well format
T-47D breast = test system: T-47D breast
SK-MEL-2 melanoma = test system: SK-MEL-2 melanoma
A549 NSCLC = test system: A549 NSCLC
KM12 colon = test system: KM12 colon
HCT-15 colon = test system: HCT-15 colon
UACC-62 melanoma = test system: UACC-62 melanoma
HT29 colon = test system: HT29 colon
U251 glioblastoma = test system: U251 glioblastoma
NCI-H522 lung = test system: NCI-H522 lung
DU-145 prostate = test system: DU-145 prostate
CAKI-1 renal = test system: CAKI-1 renal
SNB-75 CNS = test system: SNB-75 CNS
CCRF-CEM leukemia = test system: CCRF-CEM leukemia
NCI-H460 NSCLC = test system: NCI-H460 NSCLC
UACC-257 melanoma = test system: UACC-257 melanoma
SR leukemia = test system: SR leukemia
MALME-3M melanoma = test system: MALME-3M melanoma
A498 renal = test system: A498 renal
SNB-19 CNS = test system: SNB-19 CNS
NCI/ADR-RES ovarian = test system: NCI/ADR-RES ovarian
786-0 renal = test system: 786-0 renal
IGROV1 ovarian = test system: IGROV1 ovarian
OVCAR-4 ovarian = test system: OVCAR-4 ovarian
UO-31 renal = test system: UO-31 renal
TK-10 renal = test system: TK-10 renal
HS 578T breast = test system: HS 578T breast
MDA-MB-468 breast = test system: MDA-MB-468 breast
PC-3 prostate = test system: PC-3 prostate
SF-295 CNS = test system: SF-295 CNS

Cn1cc(-c2ccc3nnc(Sc4ccc5ncccc5c4)n3n2)cn1
GI50 (T-47D breast): > 100 µM
TGI (T-47D breast): > 100 µM
GI50 (SK-MEL-2 melanoma): > 100 µM
TGI (SK-MEL-2 melanoma): > 100 µM
GI50 (A549 NSCLC): > 100 µM
TGI (A549 NSCLC): > 100 µM
GI50 (KM12 colon): > 100 µM
TGI (KM12 colon): > 100 µM
GI50 (HCT-15 colon): > 100 µM
TGI (HCT-15 colon): > 100 µM
GI50 (UACC-62 melanoma): > 100 µM
TGI (UACC-62 melanoma): > 100 µM
GI50 (HT29 colon): > 100 µM
TGI (HT29 colon): > 100 µM
GI50 (U251 glioblastoma): > 100 µM
TGI (U251 glioblastoma): > 100 µM
GI50 (NCI-H522 lung): > 100 µM
TGI (NCI-H522 lung): > 100 µM
GI50 (DU-145 prostate): > 100 µM
TGI (DU-145 prostate): > 100 µM
GI50 (CAKI-1 renal): > 100 µM
TGI (CAKI-1 renal): > 100 µM
GI50 (SNB-75 CNS): > 100 µM
TGI (SNB-75 CNS): > 100 µM
GI50 (CCRF-CEM leukemia): > 100 µM
TGI (CCRF-CEM leukemia): > 100 µM
GI50 (NCI-H460 NSCLC): > 100 µM
TGI (NCI-H460 NSCLC): > 100 µM
GI50 (UACC-257 melanoma): > 100 µM
TGI (UACC-257 melanoma): > 100 µM
GI50 (SR leukemia): 27.2 µM
TGI (SR leukemia): > 100 µM
GI50 (MALME-3M melanoma): > 100 µM
TGI (MALME-3M melanoma): > 100 µM
GI50 (A498 renal): > 100 µM
TGI (A498 renal): > 100 µM
GI50 (SNB-19 CNS): > 100 µM
TGI (SNB-19 CNS): > 100 µM
GI50 (NCI/ADR-RES ovarian): > 100 µM
TGI (NCI/ADR-RES ovarian): > 100 µM
GI50 (786-0 renal): > 100 µM
TGI (786-0 renal): > 100 µM
GI50 (IGROV1 ovarian): > 100 µM
TGI (IGROV1 ovarian): > 100 µM
GI50 (OVCAR-4 ovarian): > 100 µM
TGI (OVCAR-4 ovarian): > 100 µM
GI50 (UO-31 renal): > 100 µM
TGI (UO-31 renal): > 100 µM
GI50 (TK-10 renal): > 100 µM
TGI (TK-10 renal): > 100 µM
GI50 (HS 578T breast): 61.6 µM
TGI (HS 578T breast): > 100 µM
GI50 (MDA-MB-468 breast): 13.8 µM
TGI (MDA-MB-468 breast): 48.4 µM
GI50 (PC-3 prostate): > 100 µM
TGI (PC-3 prostate): > 100 µM
GI50 (SF-295 CNS): 46.3 µM
TGI (SF-295 CNS): > 100 µM

Reference: PubChem BioAssay (NCI)
